According to patent US10724010B2 (The Regents of the University of California, priority 2013, dated 2020):
Like-named read-outs stand apart in the source and are kept apart here.

How the values were obtained:
[1] = tested on: Caulobacter crescentus NA1000 harboring pJS14-xylX::cld; details: PYE with 0.3% xylose
Method: (§1) Wild-type Caulobacter crescentus NA1000 (Marks, M. E., et al. (2010) J. Bacteriol. 192:3678-88) was grown in peptone-yeast extract medium (PYE; see Ely, B. (1991) Methods Enzymol. 204:372-84) supplemented with 0.1% (v/v) ferrous sulphate/chelate solution (Sigma # F0518). The plasmid pJS14 is a derivative of the broad-host-range cloning vector pBBR1MCS (Kovach, M. E., et al. (1994) Biotechniques 16:800-2), which confers resistance to chloramphenicol. To express Cld from pJS14, the cld open reading frame from P. chloritidismutans was placed behind a ˜430 base pair NcoI-EcoRI fragment of the xylX promoter from C. crescentus (Meisenzahl, A. C., et al. (1997) J. Bacteriol. 179:592-600). pJS14-xylX::cld or the empty vector pJS14 was transformed into NA1000 with selection using 1 μg/ml chloramphenicol.
(§2) The two strains were grown separately in PYE/chloramphenicol/ferrous sulphate supplemented with 0.3% xylose to induce cld expression. […] Each strain/condition was assayed in six individual wells.

[2] = tested on: wild-type Caulobacter crescentus NA1000 harboring pJS14; details: PYE with 0.3% xylose
Method: as §1, §2

[3] = tested on: Azospira suillum strain PS (wild type); details: grown aerobically, 40 μM chlorite
Method: (§3) Azospira suillum PS (ATCC BAA-33/DSMZ 13638) was revived from a lab freezer stock and used as the wild-type strain for all genetic manipulations. Various E. coli strains were also used for cloning and conjugation purposes. Prior to all growth curves and genetic manipulations, all strains were streaked out from master freezer stocks to get single colonies.
(§4) E. coli strains were grown in LB media. Kanamycin (Kan, […]) was used for selection and diaminopimelic acid (DAP, 0.3 mM) was used as a supplement to cultivate the auxotrophic strain WM3064. For routine culturing as well as growth assays, wild-type and mutant strains of PS were grown in ALP media. One liter of ALP media is composed of 0.49 g monobasic sodium phosphate dihydrate, 0.97 g dibasic anhydrous sodium phosphate, 0.1 g potassium chloride, 0.25 g ammonium chloride, 0.82 g sodium acetate, 2.0 g yeast extract, 7.6 g of a 60% w/w sodium lactate solution, 1.10 g sodium pyruvate and 10 mL of both vitamin mix and mineral mix. To make solid ALP media for plates, 15 g/L agar was added. Kanamycin was used for selection of PS mutants at a concentration of […]. For anaerobic growth of PS, ALP media was supplemented with either 5 mM sodium nitrate, 2.5 mM sodium perchlorate, or 5 mM of both sodium nitrate and sodium perchlorate.

[4] = tested on: Azospira suillum strain PS Δcld mutant; details: grown aerobically, 40 μM chlorite
Method: as §3, §4

[5] = tested on: Shewanella oneidensis strain MR-1 wild type containing an empty expression vector (strain RAM13); details: aerobic
[6] = tested on: bacteriophage that attacks Pseudomonas chloritidismutans; details: LB, 60 μM chlorite plus phage together, 37° C
Method: (§7) For growth experiments, P. chloritidismutans was grown in LB medium to an OD600 of 0.233 (selected from a dilution series made from an overnight culture). […] Each condition was replicated in six wells of a microtiter plate incubated at 37° C. Optical density (600 nm) was recorded during growth in a plate reader.

[7] = tested on: Caulobacter strain KR3557 (chlorite dismutase expression plasmid); details: 0.5 mM chlorite, 1:1 co-culture with KR260, 30° C
Method: (§5) Caulobacter crescentus NA 1000 harboring either pJS71 (KR260) or pJS14-xylX::cld (KR3557) were grown in PYE medium supplemented with 0.1% ferrous sulphate/chelate (Sigma # F0518) and 0.3% xylose to induce cld expression. pJS71 is a derivative of the broad-host-range plasmid pBBR1MCS (Kovach, M. E., et al. (1994) Biotechniques 16:800-2), which confers resistance to spectinomycin. […] Samples were withdrawn from each co-culture at the indicated times, diluted, and plated on PYE medium supplemented with 1 μg/ml chloramphenicol or with 100 μg/ml spectinomycin to enumerate survivors of each species.
(§6) Rather, both strains were co-cultured in PYE medium without selection, samples were taken, and the number of surviving colonies that were resistant to spectinomycin (KR260) or chloramphenicol (KR3557) were counted at the indicated times (FIG. 8).

[8] = tested on: Caulobacter strain KR260 (empty plasmid); details: 0.5 mM chlorite, 1:1 co-culture with KR3557, 30° C
Method: as §5, §6

lytic phage particles = details: culture medium treated with chlorite at 15 mM; cited from earlier work
[9] = tested on: Pseudomonas chloritidismutans; details: LB, 60 μM chlorite alone, 37° C
Method: as §7

[10] = tested on: Shewanella oneidensis strain MR-1 engineered strain (ICC38); details: aerobic

For chlorite, the “growth of Caulobacter expressing chlorite dismutase versus control medium lacking chlorite” value ([1]; 1 mM chlorite) was “growing at the same rate”, the “growth of Caulobacter expressing chlorite dismutase versus control medium lacking chlorite” value ([1]; 4 mM chlorite) was “growing at the same rate” and the “growth of wild-type Caulobacter (pJS14)” value ([2]; 1 mM chlorite) was “completely blocked”. For the same substance, the “growth of wild-type Caulobacter (pJS14)” value ([2]; 4 mM chlorite) was “completely blocked”, the “growth of the wild type strain” value [3] was “unimpaired” and the “growth of the Δcld mutant” value [4] was “no growth is observed”. For the same substance, the “growth of the wild type strain (RAM13)” value ([5]; 250 μM chlorite) was “significant reduction in the growth rate”, the “growth of the wild type strain (RAM13)” value ([5]; 1000 μM chlorite) was “completely inhibited” and the “growth of P. chloritidismutans with live phage” value [6] was “wild-type growth rate”. For the same substance, the “growth of KR3557 in co-culture” value [7] was “slightly reduced rate”, the “growth of KR260 in co-culture” value [8] was “completely blocked” and the “reduction in lytic phage particles” value (lytic phage particles) was “greater than 99%”. The “growth of P. chloritidismutans” value [9] was “did not hinder the growth”, the “growth of the recombinantly engineered strain (ICC38)” value ([10]; 250 μM chlorite) was “unimpaired” and the “growth of the recombinantly engineered strain (ICC38)” value ([10]; 1000 μM chlorite) was “minimal growth impairment”.
